What was measured:
[1] = Human radiation dosimetry (OLINDA/EXM); conditions: human model, 73 Kg adult male
Method: (§1) Radiation dosimetry estimates were calculated for a male human model (standard 73 Kg adult) and for a voxelized mouse model by using the mouse biodistribution data (Example 12, Tables 7 and 8) according to the MIRD methodology. Activity concentration in these organs were converted in percent injected dose (% ID) and decay corrected to the time of injection. The % ID for blood, muscle and bone were estimated from the % ID/g of tissue and assuming 6%, 42% and 11% of the body weight. Whenever possible the time activity curves were fitted by a two-phase exponential clearance function. The fitted function was then integrated analytically to yield the organ residence times (Table 9). […] The time activity curve of the tumor was fitted by a mono-exponential uptake function defined as F(t)=a0(1−exp(−a1t)).
Human radiation dosimetry (Table 10) were calculated using the above measured residence times and the OLINDA/EXM program with the following assumptions: 10% of the blood residence time was assigned to the heart content and 90% was assigned to the remainder of the body; the activity measured in the small and large intestines were assigned to the organ content but the radiation dose was assigned to the organ itself; activity in the large intestine was assigned in equal part to the upper and lower large intestines; activity in the bone was assigned in equal parts to the trabecular and […] bone components. The bladder voiding model in OLINDA/EXM was used. Residence time to the red marrow was calculated as a fraction of blood residence time (τmarrow=0.08 τblood).

[2] = Mouse radiation dosimetry (voxelized mouse model, EGSNRC)
Method: as §1
Radiation doses to the mouse organs were evaluated using the MIRD methodology where the S-factors in the mouse were calculated using a voxelized model of a mouse and the electron transport program EGSNRC to calculate energy deposition. The MOBY mouse phantom of Segars et al. was voxelized on a 0.2 mm grid and further modified to include the following organs: intestine wall and content, stomach wall and content, bladder wall and content and a 20 μl gall bladder. Finally, a 0.53 g tumor was added to the left side of the neck of the animal. Twenty-seven independent simulations, each for 10 millions decays, were performed with the program EGSNRC to calculate the energy deposition in each target organ for each source organ. The simulation included all decay particles from ^177Lu as listed in www.nndc.bnl.gov/MIRD tables. These S-factors were then used with the organ residence times measured above.

O=C([O-])CN1CCN(CC(=O)[O-])CCN(CC(=O)NCCOCCOCCOCCOCCOCCOCCOCCOCCOCCOCCOCCNC(=O)CCCC(=O)Nc2ccc(-c3nnc(-c4ccccn4)nn3)nc2)CCN(CC(=O)[O-])CC1.[177Lu+3] [^177Lu-tetrazine]
Effective Dose [1]: 0.0195 mSv/MBq | Organ Radiation dose Adrenals [1]: 0.00162 mGy/MBq | Organ Radiation dose Bladder Wall [1]: 0.104 mGy/MBq | Organ Radiation dose Brain [1]: 0.000146 mGy/MBq | Organ Radiation dose Breasts [1]: 0.0013 mGy/MBq | Organ Radiation dose Gall Bladder Wall [1]: 0.0018 mGy/MBq | Organ Radiation dose Heart Wall [1]: 0.000537 mGy/MBq | Organ Radiation dose Kidneys [1]: 0.0425 mGy/MBq | Organ Radiation dose Liver [1]: 0.0142 mGy/MBq | Organ Radiation dose Lower Large Int. [1]: 0.0363 mGy/MBq | Organ Radiation dose Lungs [1]: 0.00288 mGy/MBq | Organ Radiation dose Muscle [1]: 0.000861 mGy/MBq | Organ Radiation dose Osteogenic cells [1]: 0.00172 mGy/MBq | Organ Radiation dose Ovaries [1]: 0.0341 mGy/MBq | Organ Radiation dose Pancreas [1]: 0.00164 mGy/MBq | Organ Radiation dose Red marrow [1]: 0.00302 mGy/MBq | Organ Radiation dose Skin [1]: 0.0029 mGy/MBq | Organ Radiation dose Small Intestines [1]: 0.0101 mGy/MBq | Organ Radiation dose Spleen [1]: 0.0112 mGy/MBq | Organ Radiation dose Stomach Wall [1]: 0.00599 mGy/MBq | Organ Radiation dose Testes [1]: 0.00151 mGy/MBq | Organ Radiation dose Thymus [1]: 0.00134 mGy/MBq | Organ Radiation dose Thyroid [1]: 0.00132 mGy/MBq | Organ Radiation dose Total Body [1]: 0.00287 mGy/MBq | Organ Radiation dose Upper large Int. [1]: 0.0231 mGy/MBq | Organ Radiation dose Uterus [1]: 0.0293 mGy/MBq | Effective Dose [2]: 15.6 mSv/MBq | Organ Radiation dose Bladder Wall [2]: 168 mGy/MBq | Organ Radiation dose Brain [2]: 1 mGy/MBq | Organ Radiation dose Cranium [2]: 13 mGy/MBq | Organ Radiation dose Femur [2]: 8 mGy/MBq | Organ Radiation dose Gall Bladder [2]: 2 mGy/MBq | Organ Radiation dose Heart Wall [2]: 2 mGy/MBq | Organ Radiation dose Intestine Wall [2]: 9 mGy/MBq | Organ Radiation dose Kidneys [2]: 58 mGy/MBq | Organ Radiation dose Liver [2]: 10 mGy/MBq | Organ Radiation dose Lungs [2]: 5 mGy/MBq | Organ Radiation dose Pancreas [2]: 2 mGy/MBq | Organ Radiation dose Ribs [2]: 8 mGy/MBq | Organ Radiation dose Skin [2]: 1 mGy/MBq | Organ Radiation dose Spine [2]: 8 mGy/MBq | Organ Radiation dose Spine (marrow) [2]: 7 mGy/MBq | Organ Radiation dose Spleen [2]: 15 mGy/MBq | Organ Radiation dose Stomach Wall [2]: 16 mGy/MBq | Organ Radiation dose Testes (ovaries) [2]: 1 mGy/MBq | Organ Radiation dose Thyroid [2]: 1 mGy/MBq | Organ Radiation dose Trachea [2]: 2 mGy/MBq | Radiation dose Whole Body [2]: 5 mGy/MBq | Radiation dose Tumor ([2]; 0.53 g tumor): 479 mGy/MBq

From patent publication US9427482B2, “Agents for clearing biomolecules from circulation” (KONINKLIJKE PHILIPS N.V., priority 2010, dated 2016)
